Legend:
[1] = logD by shake flask method (octanol / PBS pH 7.4, HPLC); format: physicochemical; conditions: octanol / PBS pH 7.4, shake flask
Method: In order to classify the inventive compounds according to their lipophilicity, LogD values (distribution coefficient) were determined by means of the well-established shake flask method, measuring the partition of a compound between an octanol and phosphate-buffered saline (PBS, pH 7.4) by HPLC.
The LogD is pH dependent and is a “predictor” for in-vivo properties. LogD combines lipophilicity (intrinsic structural property of the molecule, logP) and ionizability (pKa). Compounds with a moderate lipophilicity (LogD values from 0 to 3) are usually advantaged for oral absorption, being in balance between solubility and permeability. However, sophisticated formulation of a compound might improve oral bioavailability for highly lipophilic compounds.

[2] = Caco-2 permeability assay (CacoReady kit); format: in vitro ADME; conditions: human, Caco-2, Caco-2 barrier, CacoReady kit; above 1×10^−6 cm/s classified as permeable
Method: Permeability coefficients (Papp values) were obtained from Caco-2 barrier studies predicting oral/intestinal bioavailability of the tested compounds. The assays were performed by using CacoReady™ ready-to-use kits from ReadyCell according to the manufacturers protocol.

[3] = target: T1, recombinant human transglutaminase 2 (Homo sapiens, UniProt P21980); experiment: Transglutaminase assay (DCC-assay): incorporation of dansylcadaverine into dimethylcasein; format: biochemical; conditions: for IC50: recombinant human TG2 10 nM, dansylcadaverine incorporation into dimethylcasein, read-out: IC50 TG2
T1 construct: purchased Zedira T022
T1 sequence (P21980 1-687): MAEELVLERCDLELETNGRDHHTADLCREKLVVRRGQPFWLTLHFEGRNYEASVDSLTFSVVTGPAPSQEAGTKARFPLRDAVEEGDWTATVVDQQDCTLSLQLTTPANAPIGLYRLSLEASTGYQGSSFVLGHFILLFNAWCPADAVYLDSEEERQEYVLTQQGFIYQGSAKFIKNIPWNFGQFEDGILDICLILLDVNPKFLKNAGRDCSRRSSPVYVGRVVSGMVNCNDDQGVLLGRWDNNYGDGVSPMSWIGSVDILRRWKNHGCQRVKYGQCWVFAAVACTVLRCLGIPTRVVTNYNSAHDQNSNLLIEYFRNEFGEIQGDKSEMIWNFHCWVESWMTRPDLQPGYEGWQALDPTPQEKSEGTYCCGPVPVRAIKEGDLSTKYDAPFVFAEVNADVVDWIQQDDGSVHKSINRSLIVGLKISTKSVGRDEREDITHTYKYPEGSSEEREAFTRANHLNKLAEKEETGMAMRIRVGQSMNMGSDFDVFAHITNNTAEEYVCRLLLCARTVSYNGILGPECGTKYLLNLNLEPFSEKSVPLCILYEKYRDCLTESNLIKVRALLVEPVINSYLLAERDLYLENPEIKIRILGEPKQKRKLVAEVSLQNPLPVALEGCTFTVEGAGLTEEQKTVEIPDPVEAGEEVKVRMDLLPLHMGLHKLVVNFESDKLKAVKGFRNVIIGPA
Method: To illustrate the advantage of branched alkyl moieties over aromatic moieties, we refer to reference compounds Ref. 2 (ZED1227, U.S. Pat. No. 9,434,763 B2) and Ref. 3 (A8, ZED1047). Inhibition data were determined using the classical fluorescent transamidation assay (dansylcadaverine incorporation into methylated casein, DCC-assay) as described [Buchold, C.; Hils, M.; Gerlach, U.; Weber, J.; Pelzer, C.; Heil, A.; Aeschlimann, D.; Pasternack, R. Features of ZED1227: The First-In-Class Tissue Transglutaminase Inhibitor Undergoing Clinical Evaluation for the Treatment of Celiac Disease. Cells 2022, 11, 1667. https://doi.org/10.3390/cells11101667]. Casein is one of the best known high molecular weight (24 kDa) protein substrates for transglutaminases. Please note, the IC50 value of Ref. 3 (A8) published in U.S. Pat. No. 9,434,763 B2 cannot be compared to the present data, relying on a fluorogenic isopeptidase assay.
To this extent, inhibition data were determined using the classical fluorescent transamidation assay (dansylcadaverine incorporation into methylated casein, DCC-assay) as described in Büchold et al. [Büchold, C.; Hils, M.; Gerlach, U.; Weber, J.; Pelzer, C.; Heil, A.; Aeschlimann, D.; Pasternack, R. Features of ZED1227: The First-In-Class Tissue Transglutaminase Inhibitor Undergoing Clinical Evaluation for the Treatment of Celiac Disease. Cells 2022, 11, 1667. https://doi.org/10.3390/cells11101667]. Casein is one of the best known high molecular weight (24 kDa) protein substrates for transglutaminases. Inhibition data of the inventive compounds was compared with inhibition of compounds disclosed in U.S. Pat. No. 9,434,763 B2, particularly, compound A8, which is denoted herein as Reference 3. It is noteworthy that the IC50 values of compounds A8 published in U.S. Pat. No. 9,434,763 B2 and E16 from U.S. Pat. No. 11,072,634 B2 cannot be compared to the present data, relying on a fluorogenic isopeptidase assay.
For the determination of potency of inhibitors against tissue transglutaminase, the incorporation of dansylcadaverine into dimethylcasein (Zedira product T036, Lorand et al., Anal Biochem, 1971, 44:221-31) was measured using recombinant human transglutaminase 2 (Zedira Product T022).
The tissue transglutaminase is diluted in buffer (50 mM Tris-HCl, 7.5 mM CaCl2), 150 mM NaCl, pH=7.4). The final concentration of TG2 in the assay is 10 nM.
A 10 mM inhibitor stock solution is prepared in DMSO, and from this a serial 1:2-fold dilution series is prepared also in DMSO. Each of the initial dilutions is subsequently diluted 1:50-fold with buffer (50 mM Tris-HCl, 7.5 mM CaCl2), 150 mM NaCl, pH=7.4) to yield the final working dilutions containing 2% (v/v) DMSO.
15 μl of inhibitor working dilution are added per well of a 96 well microtiter plate. As control, 15 μl of a 2% (v/v) DMSO solution prepared using the buffer mentioned above are added per well.
Immediately before starting the assay, 600 μl transglutaminase working solution are added to 11.4 ml assay buffer (50 mM Tris-HCl, 10 mM CaCl2), 10 mM glutathione, 2.5% glycerol, 16.7 µM dansylcadaverine, 4 uM N,N-dimethylcasein, 200 mM NaCl, pH=8.0). 285 μl of this reaction mix are added per well containing the inhibitor.
Increase in fluorescence is measured using λex=330 nm and λem=500 nm at 37° C. for 30 min. A slope of the increase in fluorescence between 20 and 30 min is calculated for determination of the IC50 value (inhibitor concentration at which 50% of the initial activity is blocked).
Analysis of enzymatic activity is performed by calculation of the slope of an increase in fluorescence intensity. IC50 values are calculated by plotting the enzymatic activity (as percentage from control containing 2% DMSO instead of inhibitor) against the inhibitor concentration. IC50 is defined as the inhibitor concentration blocking 50% of initial enzyme activity.

| logD [1] | Papp [2] [×10⁻⁶ cm/s] | IC50 [3] [nM] | fold more potent compared to Ref. 3 ([3]; DCC-assay, IC50 ratio versus Ref. 3 (A8)) [fold] | SMILES |
| --- | --- | --- | --- | --- |
| 3 to 5 | 1 to 10 | < 40 |  | CNC(=O)C(=O)CC[C@H](NC(=O)c1cc2ccccc2s1)C(=O)Nc1cccn(CC(=O)NC2C3CC4CC(C3)CC2C4)c1=O (stereo partly drawn) |
| 3 to 5 | 1 to 10 | < 40 |  | CNC(=O)C(=O)CC[C@H](NC(=O)c1cc2cc(Br)ccc2s1)C(=O)Nc1cccn(CC(=O)NC2C3CC4CC(C3)CC2C4)c1=O (stereo partly drawn) |
| 1 to 3 | 1 to 10 | 40 to 400 |  | CNC(=O)C(=O)CC[C@H](NC(=O)c1oc2ccccc2c1C)C(=O)Nc1cccn(CC(=O)NC23CC4CC5C2C[C@@H]2C[C@H]5C(C4)[C@H]3C2)c1=O (stereo in doubt) [II-104, (S)-N1-(1-(2-(diamantane-1-amino)-2-oxoethyl)-2-oxo-1,2-dihydropyridin-3-yl)-N6-methyl-2-(3-methylbenzofuran-2-carboxamido)-5-oxohexanediamide] |
| 1 to 3 | 1 to 10 | < 40 |  | CNC(=O)C(=O)CC[C@H](NC(=O)c1cc2ccccc2o1)C(=O)Nc1cccn(CC(=O)NC2C3CC4CC(C3)CC2C4)c1=O (stereo partly drawn) [II-2, (S)-2-(benzofuran-2-carboxamido)-N1-(1-(2-(2-adamantylamino)-2-oxoethyl)-2-oxo-1,2-dihydropyridin-3-yl)-N6-methyl-5-oxohexanediamide] |
| 1 to 3 | 1 to 10 | < 40 |  | CNC(=O)C(=O)CC[C@H](NC(=O)c1oc2ccccc2c1Cl)C(=O)Nc1cccn(CC(=O)NC2C3CC4CC(C3)CC2C4)c1=O (stereo partly drawn) [II-4, (S)-2-(3-chlorobenzofuran-2-carboxamido)-N1-(1-(2-(2-adamantylamino)-2-oxoethyl)-2-oxo-1,2-dihydropyridin-3-yl)-N6-methyl-5-oxohexanediamide] |
| 3 to 5 | 1 to 10 | < 40 |  | CNC(=O)C(=O)CC[C@H](NC(=O)c1cc2c(Br)cccc2o1)C(=O)Nc1cccn(CC(=O)NC2C3CC4CC(C3)CC2C4)c1=O (stereo partly drawn) [II-5, (S)-2-(4-bromobenzofuran-2-carboxamido)-N1-(1-(2-(2-adamantylamino)-2-oxoethyl)-2-oxo-1,2-dihydropyridin-3-yl)-N6-methyl-5-oxohexanediamide] |
| 1 to 3 | 1 to 10 | < 40 |  | CNC(=O)C(=O)CC[C@H](NC(=O)c1cc2ccccc2[nH]1)C(=O)Nc1cccn(CC(=O)NC2C3CC4CC(C3)CC2C4)c1=O (stereo partly drawn) [II-9, (S)-2-(1H-indole-2-carboxamido)-N1-(1-(2-(2-adamantylamino)-2-oxoethyl)-2-oxo-1,2-dihydropyridin-3-yl)-N6-methyl-5-oxohexanediamide] |
| 3 to 5 | < 1 | < 40 |  | CNC(=O)C(=O)CC[C@H](NC(=O)c1cc2c(F)c(F)ccc2[nH]1)C(=O)Nc1cccn(CC(=O)NC2C3CC4CC(C3)CC2C4)c1=O (stereo partly drawn) [II-10, (S)-2-(4,5-difluoro-1H-indole-2-carboxamido)-N1-(1-(2-(2-adamantylamino)-2-oxoethyl)-2-oxo-1,2-dihydropyridin-3-yl)-N6-methyl-5-oxohexanediamide] |
| 1 to 3 | 1 to 10 | < 40 |  | CNC(=O)C(=O)CC[C@H](NC(=O)c1[nH]c2ccccc2c1C)C(=O)Nc1cccn(CC(=O)NC2C3CC4CC(C3)CC2C4)c1=O (stereo partly drawn) [II-11, (S)-N1-(1-(2-(2-adamantylamino)-2-oxoethyl)-2-oxo-1,2-dihydropyridin-3-yl)-N6-methyl-2-(3-methyl-1H-indole-2-carboxamido)-5-oxohexanediamide] |
| 3 to 5 | < 1 | 40 to 400 |  | CNC(=O)C(=O)CC[C@H](NC(=O)c1nc2ccccc2[nH]1)C(=O)Nc1cccn(CC(=O)NC2C3CC4CC(C3)CC2C4)c1=O (stereo partly drawn) [II-12, (S)-2-(1H-benzo[d]imidazole-2-carboxamido)-N1-(1-(2-(2-adamantylamino)-2-oxoethyl)-2-oxo-1,2-dihydropyridin-3-yl)-N6-methyl-5-oxohexanediamide] |
| 1 to 3 | 1 to 10 | < 40 |  | CNC(=O)C(=O)CC[C@H](NC(=O)C1Cc2ccccc2C1)C(=O)Nc1cccn(CC(=O)NC2C3CC4CC(C3)CC2C4)c1=O (stereo partly drawn) [II-13, (S)-2-(2,3-dihydro-1H-indene-2-carboxamido)-N1-(1-(2-(2-adamantylamino)-2-oxoethyl)-2-oxo-1,2-dihydropyridin-3-yl)-N6-methyl-5-oxohexanediamide] |
| 1 to 3 | 1 to 10 | < 40 |  | CNC(=O)C(=O)CC[C@H](NC(=O)c1sc(Br)nc1C)C(=O)Nc1cccn(CC(=O)NC2C3CC4CC(C3)CC2C4)c1=O (stereo partly drawn) [II-14, (S)--(2-bromo-4-methylthiazole-5-carboxamido)-N1-(1-(2-(2-adamantylamino)-2-oxoethyl)-2-oxo-1,2-dihydropyridin-3-yl)-N6-methyl-5-oxohexanediamide] |
|  |  | 400 to 2500 |  | CNC(=O)C(=O)CC[C@H](NC(=O)c1cn[nH]n1)C(=O)Nc1cccn(CC(=O)NC2C3CC4CC(C3)CC2C4)c1=O (stereo partly drawn) [II-132, (S)-N1-(1-(2-(2-adamantylamino)-2-oxoethyl)-2-oxo-1,2-dihydropyridin-3-yl)-N6-methyl-5-oxo-2-(1H-1,2,3-triazole-4-carboxamido)hexanediamide] |
|  |  | 40 to 400 | 80 | CCC(CC)CNC(=O)Cn1cccc(NC(=O)[C@H](CC/C=C/C(=O)OC)NC(=O)c2cncn2C)c1=O [Ref. 2, reference compound] |

Reference: patent publication US20240383856A1 (Zedira GmbH, priority 2021, published 2024)
